Key:
[1] = test system: pancreatic cancer cell lines (SLFN11-deficient or SLFN11-proficient); test: Pancreatic cell line panel, 6x6 concentration matrix, live-dead SyTox green assay, Loewe synergy; type: cell-based
Text: SLFN11 RNA seq data (log 2 RPKM values) were downloaded from cancer cell line encyclopedia (CCLE) (Barretina J. et al., Nature, 2012; 483: 603-607) and drug response data (log(IC50) and area under the dose-response curve (AUCs)) from drug sensitivity in cancer database (Yang W et al., Nucleic Acids Res, 2013; 41: […]-61). Cell lines with CCLE RNA seq log 2 RPKM values below 1 were defined as SLFN11-deficient and cell lines with log 2 RPKM values above 1 as SLFN11-proficient. Nineteen pancreatic cell lines in 384-well plates were dosed with increasing concentrations of adavosertib and gemcitabine in a 6×6 concentration matrix using an Echo 555 (LabCyte). The dose range was 0-3 μM for adavosertib, and 0-0.3 μM for gemcitabine; in both cases dilutions 1:3 from the top dose were performed. Five days following continuous treatment, cell viability was determined by live-dead SyTox green assay (Life Technologies, Carlsbad, Calif., USA). Synergy was analyzed in Genedata screener software using the Loewe dose-additivity model as described above.

[2] = test system: DU145 isogenic cells (WT and SLFN11 KO); type: cell-based; settings: SLFN11 KO cells compared to wild type DU145 cells; 72 hours; FIG. 2D
Experimental: For cell survival experiment in 96 well plate, cells were seeded in 96-well plates, following compound dosing using a HP dispenser. 72 hours later, cell viability was determined with end-point CellTiter-Glo luminescent assays (Promega). Percentage growth was calculated using the equation (T−T0)/(C−T0)×100, where T=compound-treated cells; T0=cells at 0 h time point and C=control cells. Dose response curves were plotted in GraphPad prism.

| SMILES | response (log IC50) of SLFN11-deficient versus SLFN11-proficient cell lines ([1]; adavosertib monotherapy, FIG. 3B) | sensitivity to DDA monotherapy (survival curves) [2] | sensitivity (log IC50) of SLFN11-deficient versus SLFN11-proficient cell lines, fold less sensitive ([1]; gemcitabine monotherapy, on average, FIG. 3A) [times] |
| --- | --- | --- | --- |
| C=CCn1c(=O)c2cnc(Nc3ccc(N4CCN(C)CC4)cc3)nc2n1-c1cccc(C(C)(C)O)n1 [adavosertib] | same response | – | – |
| CC[C@@]1(O)C(=O)OCc2c1cc1n(c2=O)Cc2cc3ccccc3nc2-1 [camptothecin] | – | resistant | – |
| N.N.[Cl][Pt][Cl] [cisplatin] | – | resistant | – |
| COc1cc([C@@H]2c3cc4c(cc3[C@@H](O[C@@H]3O[C@@H]5CO[C@@H](C)O[C@H]5[C@H](O)[C@H]3O)[C@H]3COC(=O)[C@H]23)OCO4)cc(OC)c1O [etoposide] | – | resistant | – |
| Nc1ccn([C@@H]2O[C@H](CO)[C@@H](O)C2(F)F)c(=O)n1 [gemcitabine] | – | resistant | 100 |
| NC(=O)NO [hydroxyurea] | – | resistant | – |

Reference: patent publication US20220387468A1, “METHODS OF TREATING CANCER” (ASTRAZENECA AB, priority 2019, published 2022)
